Laboratory results: patent publication US20230064254A1, “THERAPEUTIC AGENT CONTAINING FUSED PYRIMIDINE COMPOUND AS ACTIVE INGREDIENT” (TAIHO PHARMACEUTICAL CO., LTD., priority 2019, published 2023)

Key:
[1] = tested on: mouse B cells; test: Effect of inhibiting IgG production in mouse B cells; assay type: cell-based; conditions: CD43-negative B cells from BALB/c mouse spleen, anti-CD40 antibody and IL-4 stimulation, cultured 8 days, ELISA; FIG. 1
Experimental: The present test was carried out with reference to the Non-Patent literature (Castigli et al., J Allergy Clin Immunol 2007 120(4): 885-91). A CD43-negative B cell fraction was separated from the spleen collected from BALB/c mice, and was then suspended in a 10% FBS-containing RPMI1640 culture medium, to which an anti-CD40 antibody and IL-4 had been added. A fumarate of Compound 1 was serially diluted with DMSO, and was then added to a plate, at the same time as the seeding of the cells onto the plate. A 10% FBS-containing RPMI culture medium, to which neither an anti-CD40 antibody nor IL-4 had been added, was used as a control. DMSO, which was added to a plate at the same time as the seeding of the cells on the plate, was defined as a vehicle. The cells were cultured for 8 days at 37° C. in a CO2 incubator, and thereafter, a culture supernatant was recovered. Using an anti-IgG antibody ELISA kit (Thermo Fisher Scientific), the IgG concentration in the culture supernatant was measured.

[2] = tested on: Human monocytic cells THP-1; test: Inhibition of TNFα cytokine production by IgG stimulation; assay type: cell-based; conditions: THP-1 cells on solid-phased human IgG, cultured 4 hours, ELISA; FIG. 2
Experimental: The present test was carried out with reference to the Non-Patent literature (Chang et al., Arthritis Res Ther 2011 13(4): R115). Human monocytic cells THP-1 suspended in a 10% FBS-containing RPMI1640 culture medium were seeded on a 96-well plate, on which human IgG had been solid-phased. A fumarate of Compound 1 was serially diluted with DMSO, and was then added to the plate, on which the cells had been seeded. The cells seeded into a well of the plate, in which IgG had not been solid-phased, were used as a control. DMSO, which was added to the plate at the same time as the seeding of the cells, was defined as a vehicle. The cells were cultured for 4 hours at 37° C. in a CO2 incubator, and thereafter, a culture supernatant was recovered. Using an anti-TNFα ELISA kit (R & D system), the concentration of TNFα in the culture supernatant was measured.

[3] = tested on: HIGA mice; test: Inhibition of decrease in renal function in IgA nephropathy mouse models (HIGA mice), blood urea nitrogen; assay type: in vivo; conditions: for blood urea nitrogen level (BUN), compared with the vehicle group: 10 mpk orally once a day for 6 weeks, FIG. 3, 10 mg/kg
Experimental: The present test was carried out, using HIGA mice that had been reported as mouse models of IgA nephropathy (Muso et al., Kidney International 1996 50: 1946-1957). A vehicle, a fumarate of Compound 1, or Ibrutinib (Comparative Example 1) was orally administered to 14-week-old to 16-week-old HIGA mice (Japan SLC, Inc.) once a day, continuously for 6 weeks. The control mice were not IgA nephropathy mouse models (HIGA mice), but were Balb/c mice (Japan SLC, Inc.) with the same age in weeks as described above. The vehicle was 0.5% HPMC. The daily doses were set as the following: the vehicle: 10 ml/kg, the fumarate of Compound 1: 10 mpk, and Ibrutinib: 30 mpk. […] Peripheral blood was collected from […], and the urea nitrogen level in the blood was measured. Using UREA NITROGEN (BUN) Colorimetric Detection Kit (Arbor Assays), the urea nitrogen level in the blood was measured.

[4] = AUC comparison of fumarate of Compound 1 and Ibrutinib; assay type: in vivo; conditions: fumarate of Compound 1 (1 mpk) compared with Ibrutinib (3 mpk)

AUC values [4] | Structure (SMILES) | IgG concentration in the culture supernatant (IgG production) [1] | concentration of TNFα in the culture supernatant (TNFα production) [2] | blood urea nitrogen level (BUN), compared with the vehicle group [3] | medicinal effects in HIGA mice (blood urea nitrogen level) ([3]; orally once a day for 6 weeks, fumarate of Compound 1 10 mpk, Ibrutinib 30 mpk) | blood urea nitrogen level (BUN), compared with Comparative Example 1 (Ibrutinib) ([3]; fumarate of Compound 1 10 mpk vs Ibrutinib 30 mpk, orally once a day for 6 weeks, FIG. 3)
 | C=CC(=O)N1CCC[C@@H](n2nc(C(=O)Nc3nc4ccccc4o3)c3c(N)ncnc32)C1 [Compound 1, (R)-1-(1-acryloylpiperidin-3-yl)-4-amino-N-(benzo[d]oxazol-2-yl)-1H-pyrazolo[3,4-d]pyrimidine-3-carboxamide] | inhibited IgG production in a dose-dependent manner | inhibited TNFα production in a dose-dependent manner | significantly reduce the blood urea nitrogen level (BUN) | exhibited excellent medicinal effects | 
equivalent AUC values | C=CC(=O)N1CCC[C@@H](n2nc(-c3ccc(Oc4ccccc4)cc3)c3c(N)ncnc32)C1 [Ibrutinib, reference compound] |  |  |  |  | 
equivalent AUC values | C=CC(=O)N1CCC[C@@H](n2nc(C(=O)Nc3nc4ccccc4o3)c3c(N)ncnc32)C1 [fumarate of Compound 1, (R)-1-(1-acryloylpiperidin-3-yl)-4-amino-N-(benzo[d]oxazol-2-yl)-1H-pyrazolo[3,4-d]pyrimidine-3-carboxamide] |  |  | inhibits an increase in the blood urea nitrogen level |  | significantly reduces the blood urea nitrogen level
